Results from ChEMBL document CHEMBL1201861, “Genomics of Drug Sensitity in Cancer screening data, Wellcome Trust Sanger Institute”.

Key:
Experiment in all cases: cells
LS-411N = format: functional, cell-based, Homo sapiens; settings: Homo sapiens, LS-411N
NCI-H2122 = format: functional, cell-based, Homo sapiens; settings: Homo sapiens, NCI-H2122;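 also: growth inhibition of the cells, read out with a cell viability assay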
Description: SANGER: Inhibition of human NCI-H2122 cell growth in a cell viability assay.

MKN-28 = format: functional, cell-based, Homo sapiens; settings: Homo sapiens, MKN-28;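 also: cell viability assay read-out, IC50 reflects suppression of growth of human MKN-28 cells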
Description: SANGER: Inhibition of human MKN28 cell growth in a cell viability assay.

NCI-H1651 = format: functional, cell-based, Homo sapiens; settings: Homo sapiens, NCI-H1651;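 also: Read-out is a cell viability assay, with IC50 expressing inhibition of NCI-H1651 cell growth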
Description: SANGER: Inhibition of human NCI-H1651 cell growth in a cell viability assay.

LAMA-84 = format: functional, cell-based; settings: Homo sapiens;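 also: growth inhibition of LAMA-84 cells, read out with a cell viability assay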
Description: SANGER: Inhibition of human LAMA-84 cell growth in a cell viability assay.

KP-N-YS = format: functional, cell-based; settings: Homo sapiens;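 also: cell viability assay measuring inhibition of cell line growth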
Description: SANGER: Inhibition of human KP-N-YS cell growth in a cell viability assay.

647-V = format: functional, cell-based, Homo sapiens; settings: Homo sapiens, 647-V;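 also: growth inhibition of 647-V cells, read out with a cell viability assay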
Description: SANGER: Inhibition of human 647-V cell growth in a cell viability assay.

SNU-449 = format: functional, cell-based, Homo sapiens; settings: Homo sapiens, SNU-449
Description: SANGER: Inhibition of human SNU-449 cell growth in a cell viability assay.

DJM-1 = format: functional, cell-based, Homo sapiens; settings: Homo sapiens, DJM-1;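 also: growth inhibition of human DJM-1 cells, read out by a cell viability assay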
Description: SANGER: Inhibition of human DJM-1 cell growth in a cell viability assay.

MZ1-PC = format: functional, cell-based, Homo sapiens; settings: Homo sapiens, MZ1-PC;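 also: cell viability assay measuring growth inhibition of human MZ1-PC cells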
Description: SANGER: Inhibition of human MZ1-PC cell growth in a cell viability assay.

HOS = format: functional, cell-based, Homo sapiens; settings: Homo sapiens, HOS;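 also: growth inhibition of human HOS cells, read out with a cell viability assay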
Description: SANGER: Inhibition of human HOS cell growth in a cell viability assay.

DMS-273 = format: functional, cell-based, Homo sapiens; settings: Homo sapiens, DMS-273
Description: SANGER: Inhibition of human DMS-273 cell growth in a cell viability assay.

SF-268 = format: functional, cell-based, Homo sapiens; settings: Homo sapiens, SF-268;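 also: growth inhibition of SF-268 cells determined with a cell viability assay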
Description: SANGER: Inhibition of human SF268 cell growth in a cell viability assay.

Hs-578T = format: functional, cell-based, Homo sapiens; settings: Homo sapiens, Hs-578T
Description: SANGER: Inhibition of human Hs-578-T cell growth in a cell viability assay.

A2058 = format: functional, cell-based; settings: Homo sapiens;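 also: reduction of A2058 cell growth, read out with a viability assay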
Description: SANGER: Inhibition of human A2058 cell growth in a cell viability assay.

MEG-01 = format: functional, cell-based; settings: Homo sapiens;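 also: growth inhibition of MEG-01 cells, read out by a cell viability assay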
Description: SANGER: Inhibition of human MEG-01 cell growth in a cell viability assay.

A-427 = format: functional, cell-based, Homo sapiens; settings: Homo sapiens, A-427;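 also: growth inhibition of human A-427 cells, read out by a cell viability assay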
Description: SANGER: Inhibition of human A427 cell growth in a cell viability assay.

CHP-212 = format: functional, cell-based, Homo sapiens; settings: Homo sapiens, CHP-212
Description: SANGER: Inhibition of human CHP-212 cell growth in a cell viability assay.

MKN-7 = format: functional, cell-based, Homo sapiens; settings: Homo sapiens, MKN-7;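 also: growth inhibition of MKN-7 cells, read out with a cell viability assay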
Description: SANGER: Inhibition of human MKN7 cell growth in a cell viability assay.

NCI-H1355 = format: functional, cell-based, Homo sapiens; settings: Homo sapiens, NCI-H1355;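 also: growth inhibition of human NCI-H1355 cells, read out by a cell viability assay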
Description: SANGER: Inhibition of human NCI-H1355 cell growth in a cell viability assay.

BFTC-905 = format: functional, cell-based, Homo sapiens; settings: Homo sapiens, BFTC-905
Description: SANGER: Inhibition of human BFTC-905 cell growth in a cell viability assay.

SK-LMS-1 = format: functional, cell-based, Homo sapiens; settings: Homo sapiens, SK-LMS-1;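 also: growth inhibition of human SK-LMS-1 cells, read out with a cell viability assay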
Description: SANGER: Inhibition of human SK-LMS-1 cell growth in a cell viability assay.

HEL = format: functional, cell-based, Homo sapiens; settings: Homo sapiens, HEL;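 also: growth inhibition of HEL cells, read out with a cell viability assay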
Description: SANGER: Inhibition of human HEL cell growth in a cell viability assay.

EC-GI-10 = format: functional, cell-based, Homo sapiens; settings: Homo sapiens, EC-GI-10
Description: SANGER: Inhibition of human EC-GI-10 cell growth in a cell viability assay.

Capan-2 = format: functional, cell-based, Homo sapiens; settings: Homo sapiens, Capan-2;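 also: Capan-2 cell growth inhibition, read out with a viability assay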
Description: SANGER: Inhibition of human Capan-2 cell growth in a cell viability assay.

HCC70 = format: functional, cell-based, Homo sapiens; settings: Homo sapiens, HCC70;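 also: cell viability assay measuring how strongly the compound suppresses proliferation of HCC70 cells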
Description: SANGER: Inhibition of human HCC70 cell growth in a cell viability assay.

SK-MEL-30 = format: functional, cell-based; settings: Homo sapiens;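 also: growth inhibition of SK-MEL-30 cells, determined with a cell viability assay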
Description: SANGER: Inhibition of human SK-MEL-30 cell growth in a cell viability assay.

NCI-H1793 = format: functional, cell-based, Homo sapiens; settings: Homo sapiens, NCI-H1793;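 also: cell growth inhibition, read out by a cell viability assay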
Description: SANGER: Inhibition of human NCI-H1793 cell growth in a cell viability assay.

Panc1005 = format: functional, cell-based, Homo sapiens; settings: Homo sapiens, Panc1005;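 also: growth inhibition of human PANC-10-05 cells, measured by a cell viability assay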
Description: SANGER: Inhibition of human PANC-10-05 cell growth in a cell viability assay.

BB65-RCC = format: functional, cell-based, Homo sapiens; settings: Homo sapiens, BB65-RCC;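 also: growth inhibition of the cell line, measured with a cell viability assay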
Description: SANGER: Inhibition of human BB65-RCC cell growth in a cell viability assay.

YAPC = format: functional, cell-based, Homo sapiens; settings: Homo sapiens, YAPC;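 also: growth inhibition of YAPC cells, measured with a cell viability assay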
Description: SANGER: Inhibition of human YAPC cell growth in a cell viability assay.

VM-CUB-1 = format: functional, cell-based; settings: Homo sapiens;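 also: cell viability assay measuring growth inhibition of the human VM-CUB-1 cell line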
Description: SANGER: Inhibition of human VM-CUB-1 cell growth in a cell viability assay.

SK-MES-1 = format: functional, cell-based, Homo sapiens; settings: Homo sapiens, SK-MES-1;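 also: growth inhibition of human SK-MES-1 cells, read out with a cell viability assay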
Description: SANGER: Inhibition of human SK-MES-1 cell growth in a cell viability assay.

UACC-257 = format: functional, cell-based, Homo sapiens; settings: Homo sapiens, UACC-257
Description: SANGER: Inhibition of human UACC-257 cell growth in a cell viability assay.

KYSE-180 = format: functional, cell-based, Homo sapiens; settings: Homo sapiens, KYSE-180;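 also: growth inhibition of KYSE-180 cells, read out with a cell viability assay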
Description: SANGER: Inhibition of human KYSE-180 cell growth in a cell viability assay.

RCC10RGB = format: functional, cell-based, Homo sapiens; settings: Homo sapiens, RCC10RGB;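 also: growth inhibition of human RCC10RGB cells, read out by a cell viability assay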
Description: SANGER: Inhibition of human RCC10RGB cell growth in a cell viability assay.

HN = format: functional, cell-based, Homo sapiens; settings: Homo sapiens, HN
Description: SANGER: Inhibition of human HN cell growth in a cell viability assay.

D-542MG = format: functional, cell-based, Homo sapiens; settings: Homo sapiens, D-542MG
Description: SANGER: Inhibition of human D-542MG cell growth in a cell viability assay.

P12-Ichikawa = format: functional, cell-based; settings: Homo sapiens
ES6 = format: functional, cell-based, Homo sapiens; settings: Homo sapiens, ES6;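 also: growth inhibition of human ES6 cells, read out with a cell viability assay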
Description: SANGER: Inhibition of human ES6 cell growth in a cell viability assay.

SW1088 = format: functional, cell-based, Homo sapiens; settings: Homo sapiens, SW1088;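 also: growth inhibition of human SW1088 cells, read out by a cell viability assay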
Description: SANGER: Inhibition of human SW1088 cell growth in a cell viability assay.

HCC1937 = format: functional, cell-based, Homo sapiens; settings: Homo sapiens, HCC1937;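 also: growth inhibition measured with a cell viability read-out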
Description: SANGER: Inhibition of human HCC1937 cell growth in a cell viability assay.

MeWo = format: functional, cell-based, Homo sapiens; settings: Homo sapiens, MeWo;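 also: growth inhibition of MeWo cells, determined by a cell viability readout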
Description: SANGER: Inhibition of human Mewo cell growth in a cell viability assay.

NCI-H1299 = format: functional, cell-based, Homo sapiens; settings: Homo sapiens, NCI-H1299;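 also: growth inhibition of human NCI-H1299 cells, read out by a cell viability assay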
Description: SANGER: Inhibition of human NCI-H1299 cell growth in a cell viability assay.

COR-L105 = format: functional, cell-based, Homo sapiens; settings: Homo sapiens, COR-L105;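 also: cell growth inhibition determined with a viability assay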
Description: SANGER: Inhibition of human COR-L105 cell growth in a cell viability assay.

CCRF-CEM = format: functional, cell-based; settings: Homo sapiens;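 also: inhibition of CCRF-CEM cell growth, measured by a cell viability assay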
Description: SANGER: Inhibition of human CCRF-CEM cell growth in a cell viability assay.

HMV-2 cell line = format: functional, cell-based, Homo sapiens; settings: Homo sapiens, HMV-2;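 also: growth inhibition of HMV-II cells, read out with a cell viability assay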
Description: SANGER: Inhibition of human HMV-II cell growth in a cell viability assay.

MDA-MB-157 = format: functional, cell-based, Homo sapiens; settings: Homo sapiens, MDA-MB-157
Description: SANGER: Inhibition of human MDA-MB-157 cell growth in a cell viability assay.

MSTO-211H = format: functional, cell-based, Homo sapiens; settings: Homo sapiens, MSTO-211H
Description: SANGER: Inhibition of human MSTO-211H cell growth in a cell viability assay.

OMC-1 = format: functional, cell-based, Homo sapiens; settings: Homo sapiens, OMC-1;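 also: growth inhibition of the OMC-1 cell line, measured by a cell viability assay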
Description: SANGER: Inhibition of human OMC-1 cell growth in a cell viability assay.

For `O=C(NOCC1CC1)c1ccc(F)c(F)c1Nc1ccc(I)cc1Cl` [CI-1040], the IC50 (LS-411N) was 1410 nM, the IC50 (NCI-H2122) was 6.62 µM and the IC50 (MKN-28) was greater than 10 µM. It also gave an IC50 (NCI-H1651) greater than 10 µM, an IC50 (LAMA-84) of 3.14 µM and an IC50 (KP-N-YS) greater than 10 µM. The IC50 (647-V) was greater than 10 µM, the IC50 (SNU-449) was greater than 10 µM and the IC50 (DJM-1) was greater than 10 µM. The IC50 (MZ1-PC) was greater than 10 µM, the IC50 (HOS) was 5.63 µM and the IC50 (DMS-273) was greater than 10 µM. The IC50 (SF-268) was greater than 10 µM, the IC50 (Hs-578T) was 5.54 µM and the IC50 (A2058) was 2190 nM. It also gave an IC50 (MEG-01) of 9.25 µM, an IC50 (A-427) of 3.6 µM and an IC50 (CHP-212) of 28.9 nM. The IC50 (MKN-7) was greater than 10 µM, the IC50 (NCI-H1355) was 7.59 µM and the IC50 (BFTC-905) was 2830 nM. The IC50 (SK-LMS-1) was greater than 10 µM, the IC50 (HEL) was greater than 10 µM and the IC50 (EC-GI-10) was greater than 10 µM. The IC50 (Capan-2) was greater than 10 µM, the IC50 (HCC70) was 2020 nM and the IC50 (SK-MEL-30) was 7.25 µM. It also gave an IC50 (NCI-H1793) greater than 10 µM, an IC50 (Panc1005) of 6.28 µM and an IC50 (BB65-RCC) of 2410 nM. The IC50 (YAPC) was greater than 10 µM, the IC50 (VM-CUB-1) was greater than 10 µM and the IC50 (SK-MES-1) was 5.84 µM. For the same molecule, the IC50 (UACC-257) was 965 nM, the IC50 (KYSE-180) was greater than 10 µM and the IC50 (RCC10RGB) was greater than 10 µM. It also gave an IC50 (HN) of 2160 nM, an IC50 (D-542MG) greater than 10 µM and an IC50 (P12-Ichikawa) of 612 nM. The IC50 (ES6) was greater than 10 µM, the IC50 (SW1088) was 6.92 µM and the IC50 (HCC1937) was 9.29 µM. For the same molecule, the IC50 (MeWo) was 1200 nM, the IC50 (NCI-H1299) was greater than 10 µM and the IC50 (COR-L105) was 6.65 µM. It also gave an IC50 (CCRF-CEM) greater than 10 µM, an IC50 (HMV-2 cell line) of 645 nM and an IC50 (MDA-MB-157) greater than 10 µM. It also gave an IC50 (MSTO-211H) of 9.96 µM.

`CC(=O)O[C@@]12CO[C@@H]1C[C@H](O)[C@@]1(C)C(=O)[C@H](O)C3=C(C)[C@@H](OC(=O)[C@H](O)[C@@H](NC(=O)OC(C)(C)C)c4ccccc4)C[C@@](O)([C@@H](OC(=O)c4ccccc4)[C@H]21)C3(C)C` [DOCETAXEL] gave an IC50 (LS-411N) of 3.14 nM, an IC50 (NCI-H2122) of 0.00184 µM and an IC50 (MKN-28) of 0.00317 µM. For the same molecule, the IC50 (NCI-H1651) was 0.0054 µM, the IC50 (LAMA-84) was greater than 0.01 µM and the IC50 (KP-N-YS) was greater than 0.01 µM. For the same molecule, the IC50 (647-V) was 0.00184 µM, the IC50 (SNU-449) was greater than 0.01 µM and the IC50 (DJM-1) was greater than 0.01 µM. For the same molecule, the IC50 (MZ1-PC) was 0.00118 µM, the IC50 (HOS) was 0.000782 µM and the IC50 (DMS-273) was 0.000674 µM. It also gave an IC50 (SF-268) of 0.00121 µM, an IC50 (Hs-578T) of 0.00272 µM and an IC50 (A2058) of 0.544 nM. The IC50 (MEG-01) was greater than 0.01 µM, the IC50 (A-427) was 0.00148 µM and the IC50 (CHP-212) was 0.73 nM. The IC50 (MKN-7) was greater than 0.01 µM, the IC50 (NCI-H1355) was 0.00679 µM and the IC50 (BFTC-905) was 0.268 nM. It also gave an IC50 (HEL) greater than 0.01 µM, an IC50 (EC-GI-10) of 0.000592 µM and an IC50 (Capan-2) greater than 0.01 µM. The IC50 (HCC70) was 2.77 nM, the IC50 (SK-MEL-30) was 0.00732 µM and the IC50 (NCI-H1793) was greater than 0.01 µM. For the same molecule, the IC50 (Panc1005) was greater than 0.01 µM, the IC50 (BB65-RCC) was 3.08 nM and the IC50 (OMC-1) was 9.06 nM. For the same molecule, the IC50 (YAPC) was greater than 0.01 µM, the IC50 (VM-CUB-1) was 0.00105 µM and the IC50 (SK-MES-1) was 0.00233 µM. For the same molecule, the IC50 (UACC-257) was greater than 10 nM, the IC50 (KYSE-180) was 0.00135 µM and the IC50 (RCC10RGB) was greater than 0.01 µM. The IC50 (HN) was 0.758 nM, the IC50 (D-542MG) was greater than 0.01 µM and the IC50 (P12-Ichikawa) was 0.745 nM. It also gave an IC50 (ES6) greater than 0.01 µM, an IC50 (SW1088) of 0.00295 µM and an IC50 (HCC1937) greater than 0.01 µM. The IC50 (MeWo) was 5.05 nM, the IC50 (NCI-H1299) was 0.00857 µM and the IC50 (COR-L105) was greater than 0.01 µM. For the same molecule, the IC50 (CCRF-CEM) was greater than 0.01 µM, the IC50 (HMV-2 cell line) was greater than 10 nM and the IC50 (MDA-MB-157) was greater than 0.01 µM. It also gave an IC50 (MSTO-211H) greater than 0.01 µM.

For `Cn1cc(C2=C(c3ccc(Cl)cc3Cl)C(=O)NC2=O)c2ccccc21` [SB-216763], the IC50 (LS-411N) was greater than 10000 nM, the IC50 (NCI-H2122) was greater than 10 µM and the IC50 (MKN-28) was greater than 10 µM. It also gave an IC50 (NCI-H1651) greater than 10 µM, an IC50 (LAMA-84) greater than 10 µM and an IC50 (KP-N-YS) greater than 10 µM. It also gave an IC50 (647-V) greater than 10 µM, an IC50 (SNU-449) greater than 10 µM and an IC50 (DJM-1) greater than 10 µM. It also gave an IC50 (MZ1-PC) greater than 10 µM, an IC50 (HOS) greater than 10 µM and an IC50 (DMS-273) greater than 10 µM. It also gave an IC50 (SF-268) greater than 10 µM, an IC50 (Hs-578T) greater than 10 µM and an IC50 (A2058) greater than 10000 nM. For the same molecule, the IC50 (MEG-01) was greater than 10 µM, the IC50 (A-427) was greater than 10 µM and the IC50 (CHP-212) was greater than 10000 nM. It also gave an IC50 (MKN-7) greater than 10 µM, an IC50 (NCI-H1355) greater than 10 µM and an IC50 (BFTC-905) greater than 10000 nM. For the same molecule, the IC50 (SK-LMS-1) was greater than 10 µM, the IC50 (HEL) was greater than 10 µM and the IC50 (EC-GI-10) was greater than 10 µM. The IC50 (Capan-2) was greater than 10 µM, the IC50 (HCC70) was greater than 10000 nM and the IC50 (SK-MEL-30) was greater than 10 µM. It also gave an IC50 (NCI-H1793) greater than 10 µM, an IC50 (Panc1005) greater than 10 µM and an IC50 (BB65-RCC) greater than 10000 nM. The IC50 (YAPC) was greater than 10 µM, the IC50 (VM-CUB-1) was greater than 10 µM and the IC50 (SK-MES-1) was greater than 10 µM. The IC50 (UACC-257) was greater than 10000 nM, the IC50 (KYSE-180) was greater than 10 µM and the IC50 (RCC10RGB) was greater than 10 µM. It also gave an IC50 (HN) greater than 10000 nM, an IC50 (D-542MG) greater than 10 µM and an IC50 (P12-Ichikawa) greater than 10000 nM. For the same molecule, the IC50 (ES6) was greater than 10 µM, the IC50 (SW1088) was greater than 10 µM and the IC50 (HCC1937) was greater than 10 µM. It also gave an IC50 (MeWo) greater than 10000 nM, an IC50 (NCI-H1299) greater than 10 µM and an IC50 (COR-L105) greater than 10 µM. For the same molecule, the IC50 (CCRF-CEM) was greater than 10 µM, the IC50 (HMV-2 cell line) was 7680 nM and the IC50 (MDA-MB-157) was greater than 10 µM. For the same molecule, the IC50 (MSTO-211H) was greater than 10 µM.
